Entries after “also recorded” stand apart in the source; their conditions may differ. Where two headings read alike, the source gives them in different places.
How the values were obtained:
patients with mCRPC = details: cited from earlier work
[1] = tested on: salivary glands, kidneys, red marrow; assay: Dosimetry estimate for ^225Ac-PSMA-617 extrapolated from ^177Lu-PSMA-617 scans; assay type: in vivo, human; details: FIG. 15
Procedure: The clinical dosimetry basis and dose finding study was performed by using the isotopes ^225Ac and ^177Lu by Kratochwil et al. A dosimetry estimate was calculated on the basis of time-activity curves derived from serially obtained ^177Lu-PSMA-617 scans extrapolated to the physical half-life of ^225Ac, assuming instant decay of unstable daughter nuclides. Salvage therapies empirically conducted with 50 (n=4), 100 (n=4), 150 (n=2), and 200 kBq/kg (n=4) of 225Ac-PSMA-617 were evaluated retrospectively regarding toxicity and treatment response. Eight of 14 patients received further cycles in either 2- or 4-mo intervals with identical or de-escalated activities.
In FIG. 15, the absorbed radiation dose estimates for ^225Ac-PSMA-617 are shown together with I-131-“PSMA” and ^177Lu-PSMA-617 doses. We see that mean dose for salivary glands is approximately 70% higher with ^225Ac-PSMA-617 than with ^177Lu-PSMA-617, and red marrow dose 85% higher, respectively.

[2] = Yadav 2020, 28 patients, 100 kBq/kg per cycle
[3] = group with previous ^177Lu-PSMA

O=C(O)CC[C@H](NC(=O)N[C@@H](CCCCNC(=O)[C@H](Cc1ccc2ccccc2c1)NC(=O)[C@H]1CC[C@H](CNC(=O)CN2CCN(CC(=O)O)CCN(CC(=O)O)CCN(CC(=O)O)CC2)CC1)C(=O)O)C(=O)O [^225Ac-PSMA-617, metal not drawn]
Biochemical response PSA50 (patients with mCRPC; [2]): 39% | Major toxicity (patients with mCRPC; [2]): xerostomia; also recorded: fatigue | OS (patients with mCRPC; [2]): 17 mo | PFS (patients with mCRPC; [2]): 12 mo | PSA decline of >50% (patients with mCRPC; ^177Lu PSMA naïve group): 53.8% | median survival (patients with mCRPC; ^177Lu PSMA naïve group): 12 months | overall survival (patients with mCRPC; ^177Lu PSMA naïve group): 17 months | progression rate (patients with mCRPC; ^177Lu PSMA naïve group): 22.3% | PSA decline of >50% (patients with mCRPC; [3]): 26.6% | median survival (patients with mCRPC; [3]): 10 months | overall survival (patients with mCRPC; [3]): 16 months | progression rate (patients with mCRPC; [3]): 46% | mean dose for salivary glands higher than with ^177Lu-PSMA-617 [1]: approximately 70% | red marrow dose higher than with ^177Lu-PSMA-617 [1]: 85%

Source: US20250303004A1, “RADIOPHARMACEUTICAL COMPOSITIONS FOR LOW TOXICITY ACTINIUM IN TARGETED RADIONUCLIDE THERAPY” (Curium US LLC, priority 2021, published 2025)
